# In PubChem BioAssay AID1259407 (Chemical Carcinogenesis Research Information System (CCRIS), 2018):
# Activity calls are given as the source filed them. No rule for the calls is given here.
# System: CCRIS mutagenicity, Ames/micronucleus/aberration tests
# Assay: CCRIS mutagenicity studies
# [1] = Test System: AMES SALMONELLA TYPHIMURIUM, Strain/Indicator: TA98, Metabolic Activation: NONE, Method: STANDARD PLATE
# [2] = Test System: AMES SALMONELLA TYPHIMURIUM, Strain/Indicator: TA100, Metabolic Activation: NONE, Method: STANDARD PLATE
# [3] = Test System: AMES SALMONELLA TYPHIMURIUM, Strain/Indicator: TA98, Metabolic Activation: NONE, Method: PREINCUBATION
# [4] = Test System: AMES SALMONELLA TYPHIMURIUM, Strain/Indicator: TA100, Metabolic Activation: NONE, Method: PREINCUBATION
compound,measurement,setting,value
CN(N=O)C(=O)N[C@@H](C=O)[C@@H](O)[C@H](O)[C@H](O)CO,mutagenic call,"End Point: IN VITRO CHROMOSOMAL ABERRATIONS, Test System: CHE CELLS, Metabolic Activation: NONE, Method: FISH (METAPHASE)",active; positive (structural changes)
same,mutagenic call,"Test System: AMES SALMONELLA TYPHIMURIUM, Strain/Indicator: TA97, Metabolic Activation: NONE, Method: STANDARD PLATE",active; positive
same,mutagenic call,"Test System: AMES SALMONELLA TYPHIMURIUM, Strain/Indicator: TA97, Metabolic Activation: RAT, LIVER, S-9, AROCLOR 1254, Method: STANDARD PLATE",inactive; negative
same,mutagenic call,[1],inactive; negative
same,mutagenic call,"Test System: AMES SALMONELLA TYPHIMURIUM, Strain/Indicator: TA98, Metabolic Activation: RAT, LIVER, S-9, AROCLOR 1254, Method: STANDARD PLATE",inactive; negative
same,mutagenic call,[2],active; positive
same,mutagenic call,"Test System: AMES SALMONELLA TYPHIMURIUM, Strain/Indicator: TA100, Metabolic Activation: RAT, LIVER, S-9, AROCLOR 1254, Method: STANDARD PLATE",inactive; negative
same,mutagenic call,"Test System: AMES SALMONELLA TYPHIMURIUM, Strain/Indicator: TA1535, Metabolic Activation: NONE, Method: STANDARD PLATE",active; positive
same,mutagenic call,"Test System: CHINESE HAMSTER OVARY, Strain/Indicator: CHO-9 (HPRT), Metabolic Activation: NONE",active; positive
same,mutagenic call,"Test System: CHINESE HAMSTER OVARY, Strain/Indicator: CHO-9/OUABAIN, Metabolic Activation: NONE",active; positive
same,mutagenic call,"Test System: CHINESE HAMSTER OVARY, Strain/Indicator: CHO-K1-BH4 (HGPRT), Metabolic Activation: NONE, Method: SUSPENSION/PLATE",active; positive
same,mutagenic call,"Test System: CHINESE HAMSTER OVARY, Strain/Indicator: EM-C11 (HPRT), Metabolic Activation: NONE",active; positive
same,mutagenic call,"Test System: CHINESE HAMSTER OVARY, Strain/Indicator: EM-C11/OUABAIN, Metabolic Activation: NONE",active; positive
same,mutagenic call,"Test System: CHINESE HAMSTER V-79, Strain/Indicator: V-79/6-THIOGUANINE, Metabolic Activation: NONE, Method: STANDARD PLATE",active; positive
same,mutagenic call,"Test System: CHINESE HAMSTER V-79, Strain/Indicator: V-79/8-AZAGUANINE, Metabolic Activation: NONE, Method: STANDARD PLATE",active; positive
same,mutagenic call,"Test System: E. COLI, Strain/Indicator: WP2 (HCR), Metabolic Activation: NONE, Method: STANDARD PLATE",active; positive
C[N+]1([O-])CCC[C@H]1c1cccnc1 (some centres undefined),mutagenic call,[3],inactive; negative
same,mutagenic call,"Test System: AMES SALMONELLA TYPHIMURIUM, Strain/Indicator: TA98, Metabolic Activation: RAT, LIVER, S-9, AROCLOR 1254 (5%), Method: PREINCUBATION",inactive; negative
same,mutagenic call,[4],inactive; negative
same,mutagenic call,"Test System: AMES SALMONELLA TYPHIMURIUM, Strain/Indicator: TA100, Metabolic Activation: RAT, LIVER, S-9, AROCLOR 1254 (5%), Method: PREINCUBATION",inactive; negative
same,mutagenic call,"Test System: AMES SALMONELLA TYPHIMURIUM, Strain/Indicator: TA1535, Metabolic Activation: NONE, Method: PREINCUBATION",inactive; negative
same,mutagenic call,"Test System: AMES SALMONELLA TYPHIMURIUM, Strain/Indicator: TA1535, Metabolic Activation: RAT, LIVER, S-9, AROCLOR 1254 (5%), Method: PREINCUBATION",inactive; negative
same,mutagenic call,"Test System: AMES SALMONELLA TYPHIMURIUM, Strain/Indicator: TA1537, Metabolic Activation: NONE, Method: PREINCUBATION",inactive; negative
same,mutagenic call,"Test System: AMES SALMONELLA TYPHIMURIUM, Strain/Indicator: TA1537, Metabolic Activation: RAT, LIVER, S-9, AROCLOR 1254 (5%), Method: PREINCUBATION",inactive; negative
same,mutagenic call,"Test System: AMES SALMONELLA TYPHIMURIUM, Strain/Indicator: TA1538, Metabolic Activation: NONE, Method: PREINCUBATION",inactive; negative
same,mutagenic call,"Test System: AMES SALMONELLA TYPHIMURIUM, Strain/Indicator: TA1538, Metabolic Activation: RAT, LIVER, S-9, AROCLOR 1254 (5%), Method: PREINCUBATION",inactive; negative
O=[N+]([O-])c1ccc(Oc2c(Cl)cc(Cl)cc2Cl)cc1,mutagenic call,[3],inactive; negative
same,mutagenic call,[1],inactive; negative
same,mutagenic call,"Test System: AMES SALMONELLA TYPHIMURIUM, Strain/Indicator: TA98, Metabolic Activation: RAT LIVER S-9 (10%), PHENOBARBITAL AND 5,6-BENZOFLAVONE, Method: PREINCUBATION",inactive; negative
same,mutagenic call,"Test System: AMES SALMONELLA TYPHIMURIUM, Strain/Indicator: TA98, Metabolic Activation: S-9, Method: STANDARD PLATE",inactive; negative
same,mutagenic call,[4],inactive; negative
same,mutagenic call,[2],inactive; negative
same,mutagenic call,"Test System: AMES SALMONELLA TYPHIMURIUM, Strain/Indicator: TA100, Metabolic Activation: RAT LIVER S-9 (10%), PHENOBARBITAL AND 5,6-BENZOFLAVONE, Method: PREINCUBATION",inactive; negative
same,mutagenic call,"Test System: AMES SALMONELLA TYPHIMURIUM, Strain/Indicator: TA100, Metabolic Activation: S-9, Method: STANDARD PLATE",inactive; negative
same,mutagenic call,"Test System: AMES SALMONELLA TYPHIMURIUM, Strain/Indicator: YG1021, Metabolic Activation: NONE, Method: STANDARD PLATE",inactive; negative
same,mutagenic call,"Test System: AMES SALMONELLA TYPHIMURIUM, Strain/Indicator: YG1021, Metabolic Activation: RAT LIVER S-9 (10%), PHENOBARBITAL AND 5,6-BENZOFLAVONE, Method: PREINCUBATION",inactive; negative
same,mutagenic call,"Test System: AMES SALMONELLA TYPHIMURIUM, Strain/Indicator: YG1021, Metabolic Activation: RAT, LIVER, S-9, PCB, Method: PREINCUBATION",active; positive
same,mutagenic call,"Test System: AMES SALMONELLA TYPHIMURIUM, Strain/Indicator: YG1021, Metabolic Activation: S-9, Method: STANDARD PLATE",inactive; negative
same,mutagenic call,"Test System: AMES SALMONELLA TYPHIMURIUM, Strain/Indicator: YG1024, Metabolic Activation: NONE, Method: PREINCUBATION",active; positive
same,mutagenic call,"Test System: AMES SALMONELLA TYPHIMURIUM, Strain/Indicator: YG1024, Metabolic Activation: NONE, Method: STANDARD PLATE",inactive; negative
same,mutagenic call,"Test System: AMES SALMONELLA TYPHIMURIUM, Strain/Indicator: YG1024, Metabolic Activation: RAT LIVER S-9 (10%), PHENOBARBITAL AND 5,6-BENZOFLAVONE, Method: PREINCUBATION",active; positive
same,mutagenic call,"Test System: AMES SALMONELLA TYPHIMURIUM, Strain/Indicator: YG1024, Metabolic Activation: RAT, LIVER, S-9, PHENOBARBITAL AND 5,6-BENZOFLAVONE, Method: PREINCUBATION",active; positive
same,mutagenic call,"Test System: AMES SALMONELLA TYPHIMURIUM, Strain/Indicator: YG1024, Metabolic Activation: S-9, Method: STANDARD PLATE",inactive; negative
same,mutagenic call,"Test System: AMES SALMONELLA TYPHIMURIUM, Strain/Indicator: YG1026, Metabolic Activation: NONE, Method: STANDARD PLATE",inactive; negative
same,mutagenic call,"Test System: AMES SALMONELLA TYPHIMURIUM, Strain/Indicator: YG1026, Metabolic Activation: RAT LIVER S-9 (10%), PHENOBARBITAL AND 5,6-BENZOFLAVONE, Method: PREINCUBATION",inactive; negative
same,mutagenic call,"Test System: AMES SALMONELLA TYPHIMURIUM, Strain/Indicator: YG1026, Metabolic Activation: RAT, LIVER, S-9, PCB, Method: PREINCUBATION",active; positive
same,mutagenic call,"Test System: AMES SALMONELLA TYPHIMURIUM, Strain/Indicator: YG1026, Metabolic Activation: S-9, Method: STANDARD PLATE",inactive; negative
same,mutagenic call,"Test System: AMES SALMONELLA TYPHIMURIUM, Strain/Indicator: YG1029, Metabolic Activation: NONE, Method: PREINCUBATION",inactive; negative
same,mutagenic call,"Test System: AMES SALMONELLA TYPHIMURIUM, Strain/Indicator: YG1029, Metabolic Activation: NONE, Method: STANDARD PLATE",active; positive
same,mutagenic call,"Test System: AMES SALMONELLA TYPHIMURIUM, Strain/Indicator: YG1029, Metabolic Activation: RAT LIVER S-9 (10%), PHENOBARBITAL AND 5,6-BENZOFLAVONE, Method: PREINCUBATION",active; positive
same,mutagenic call,"Test System: AMES SALMONELLA TYPHIMURIUM, Strain/Indicator: YG1029, Metabolic Activation: RAT, LIVER, S-9, AROCLOR 1254, Method: STANDARD PLATE",active; positive
same,mutagenic call,"Test System: AMES SALMONELLA TYPHIMURIUM, Strain/Indicator: YG1029, Metabolic Activation: RAT, LIVER, S-9, PHENOBARBITAL AND 5,6-BENZOFLAVONE, Method: PREINCUBATION",active; positive
same,mutagenic call,"Test System: AMES SALMONELLA TYPHIMURIUM, Strain/Indicator: YG1029, Metabolic Activation: S-9, Method: STANDARD PLATE",active; positive
CC(=O)[C@]1(C)O[C@@]12C=Cc1ccccc1C2=O,mutagenic call,[4],inactive; negative
